The record followed here is patent publication US8895558B2, “Arylpiperazine-containing pyrrole 3-carboxamide derivatives for treating depressive disorders” (Green Cross Corporation, priority 2008, dated 2014).

A word on the IC50: it is the point on the concentration scale where inhibition reaches its midpoint.

SMILES strings stand for the structures. Where a name gives a salt, the structure may show the parent alone.

Experiment [1] concerns the target T1, human recombinant serotonin 5-HT2A receptor (Homo sapiens, UniProt P28223).
T1 construct: purchased PerkinElmer Life and Analytical Sciences, USA; host or cells: CHO-K1
The experiment can be described thus: Binding affinity for serotonin 5-HT2A receptor ([3H]Ketanserin). The conditions noted are these: CHO-K1 expressed receptor, 1 nM [3H]Ketanserin. The procedure:
Receptor binding affinities of the compounds for serotonin receptors were measured by the method described in the literature [Park W K et al., Pharmacol Biochem Behav. 2005, 82(2), 361-372].
For serotonin 5-HT2A binding, an aliquot of human recombinant serotonin 5-HT2A receptor (PerkinElmer Life and Analytical Sciences, USA) expressed in CHO-K1 cells (5 ug/well) and 1 nM [^3H]Ketanserin (PerkinElmer) were used in the presence of mianserin (20 uM) as nonspecific. The reaction mixture was incubated for 60 min at 27 using 50 mM Tris-HCl (pH 7.4) buffer containing 4 mM CaCl2 and 0.1% ascorbic acid, and harvested through filtermate A glass fiber filter (Wallac, Finland) presoaked in 0.5% polyethyleneimine (PEI) by microbeta filtermate-96 harvester (PerkinElmer) to terminate the reaction, and then washed with ice cold 50 mM Tris-HCl buffer solution (pH 7.4). The filter was then covered with MeltiLex, sealed in a sample bag, dried in an oven. The radioactivity retained in the filter was finally counted using MicroBeta Plus (Wallac).
(§1) The binding affinity (IC50) of a compound for the receptor was calculated by computerized nonlinear regression analysis (GraphPad Prism Program, San Diego, USA) using 7-8 varied concentrations of the compound run in duplicate tubes.

Experiment [2] deals with T2, human recombinant 5-HT2C receptor (Homo sapiens, UniProt P28335).
T2 construct: purchased PerkinElmer
T2 sequence (P28335 33-458): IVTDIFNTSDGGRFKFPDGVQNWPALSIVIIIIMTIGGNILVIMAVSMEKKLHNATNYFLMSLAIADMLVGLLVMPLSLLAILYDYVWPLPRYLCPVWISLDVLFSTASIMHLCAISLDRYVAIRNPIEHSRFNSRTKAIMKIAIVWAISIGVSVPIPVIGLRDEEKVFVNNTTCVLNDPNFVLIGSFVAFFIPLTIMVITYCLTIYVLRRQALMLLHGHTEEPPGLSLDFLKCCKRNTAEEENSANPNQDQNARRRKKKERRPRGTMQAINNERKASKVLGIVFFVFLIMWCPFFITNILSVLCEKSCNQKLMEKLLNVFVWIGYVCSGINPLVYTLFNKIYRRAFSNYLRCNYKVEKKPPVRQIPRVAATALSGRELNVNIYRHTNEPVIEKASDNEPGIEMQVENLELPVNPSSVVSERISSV
The experiment can be described thus: Binding affinity for serotonin 5-HT2C receptor ([3H]Mesulergine). The conditions noted are these: CHO-K1 membranes, 1.3 nM [3H]Mesulergine. The procedure:
Receptor binding affinities of the compounds for serotonin receptors were measured by the method described in the literature [Park W K et al., Pharmacol Biochem Behav.
as §1
Nonspecific binding was determined using 100 uM mianserin. The incubations were performed for 60 min at 27, and these were terminated by rapid filtration through filtermate. A glass fiber filter presoaked in 0.5% PEI.

The target in experiment [3] is T3, human serotonin transporter (Homo sapiens, UniProt P31645).
T3 construct: purchased PerkinElmer; host or cells: HEK-293
T3 sequence (P31645 whole entry): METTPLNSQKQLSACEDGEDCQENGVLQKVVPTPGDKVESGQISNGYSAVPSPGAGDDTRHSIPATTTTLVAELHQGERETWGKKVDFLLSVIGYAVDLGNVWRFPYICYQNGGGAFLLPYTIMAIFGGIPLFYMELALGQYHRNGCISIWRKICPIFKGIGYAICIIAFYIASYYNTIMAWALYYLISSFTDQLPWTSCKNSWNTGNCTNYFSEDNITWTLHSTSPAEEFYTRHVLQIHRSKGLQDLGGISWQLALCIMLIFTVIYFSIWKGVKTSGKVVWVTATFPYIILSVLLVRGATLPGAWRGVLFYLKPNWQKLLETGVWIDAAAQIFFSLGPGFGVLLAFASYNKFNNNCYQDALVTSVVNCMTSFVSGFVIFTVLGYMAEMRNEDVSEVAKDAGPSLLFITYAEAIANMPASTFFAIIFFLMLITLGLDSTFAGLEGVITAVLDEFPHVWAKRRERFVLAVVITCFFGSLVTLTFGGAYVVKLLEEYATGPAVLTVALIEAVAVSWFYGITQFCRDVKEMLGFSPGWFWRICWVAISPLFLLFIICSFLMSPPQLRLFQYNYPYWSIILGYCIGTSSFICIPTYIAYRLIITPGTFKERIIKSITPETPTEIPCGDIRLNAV
The experiment can be described thus: Binding affinity for serotonin transporter ([3H]Imipramine). As to conditions: HEK-293 membranes, 2 nM [3H]Imipramine. The procedure:
For serotonin transporter binding assays, a reaction mixture with a final volume of 0.25 ml was prepared by mixing a test compound, human serotonin transporter membrane expressed in HEK-293 cells (PerkinElmer, 5 ug/well), [^3H]Imipramine (PerkinElmer, 2 nM) and 50 mM Tris-HCl (pH 7.4) buffer containing 120 mM NaCl and 5 mM KCl. The reaction mixture was incubated for 30 min at 27, and harvested through filtermate. A glass fiber filter presoaked in 0.5% PEI with ice cold 50 mM Tris-HCl buffer (pH 7.4) containing 0.9% NaCl.

T1 sequence (P28223 whole entry): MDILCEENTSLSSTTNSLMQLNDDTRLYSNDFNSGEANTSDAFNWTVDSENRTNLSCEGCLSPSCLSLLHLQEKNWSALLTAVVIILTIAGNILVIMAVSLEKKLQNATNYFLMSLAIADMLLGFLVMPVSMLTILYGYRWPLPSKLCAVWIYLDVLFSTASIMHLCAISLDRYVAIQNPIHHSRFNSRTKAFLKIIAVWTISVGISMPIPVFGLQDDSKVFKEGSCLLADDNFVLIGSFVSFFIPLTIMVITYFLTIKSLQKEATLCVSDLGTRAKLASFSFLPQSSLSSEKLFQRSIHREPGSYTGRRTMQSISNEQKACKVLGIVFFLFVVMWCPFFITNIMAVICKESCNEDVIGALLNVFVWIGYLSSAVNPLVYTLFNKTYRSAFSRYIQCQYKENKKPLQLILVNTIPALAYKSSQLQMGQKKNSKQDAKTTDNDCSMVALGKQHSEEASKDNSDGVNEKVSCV

On to `Cc1c(C(=O)NCCCN2CCN(c3cccc(Cl)c3)CC2)cc(-c2ccccc2)n1C` [Example 1, N-(3-(4-(3-chlorophenyl)piperazin-1-yl)propyl)-1,2-dimethyl-5-phenyl-1H-pyrrole-3-carboxamide], for which the IC50 in experiment [1] worked out at 92 nM; in experiment [2], 160 nM; in experiment [3], 11.1 nM.

On to `Cc1cccc(N2CCN(CCCNC(=O)c3cc(-c4ccc(Cl)cc4)n(C)c3C)CC2)c1C` [Example 61, 5-(4-chlorophenyl)-N-(3-(4-(2,3-dimethylphenyl)piperazin-1-yl)propyl)-1,2-dimethyl-1H-pyrrole-3-carboxamide hydrochloride], for which the IC50 stood at 213 nM in experiment [1], 129 nM in experiment [2] and 129 nM in experiment [3].

For `CCn1c(C)c(C(=O)NCCCN2CCN(c3cccc(Cl)c3Cl)CC2)c(C)c1-c1ccccc1` [Example 80, N-(3-(4-(2,3-dichlorophenyl)piperazin-1-yl)propyl)-1-ethyl-2,4-dimethyl-5-phenyl-1H-pyrrole-3-carboxamide hydrochloride], the values for the IC50 in experiment [1], in experiment [2] and in experiment [3] were 47 nM, 42 nM and 97 nM, respectively.

As to `Cc1[nH]c(-c2ccccc2)cc1C(=O)NCCN1CCN(c2cccc(Cl)c2Cl)CC1` [Example 38, N-(2-(4-(2,3-dichlorophenyl)piperazin-1-yl)ethyl)-2-methyl-5-phenyl-1H-pyrrole-3-carboxamide hydrochloride], the IC50 in experiment [1] is 40 nM; in experiment [2], 37 nM; in experiment [3], 87 nM.

For the compound `CCn1c(-c2ccccc2)cc(C(=O)NCCCN2CCN(c3cccc(Cl)c3Cl)CC2)c1C` [Example 11, N-(3-(4-(2,3-dichlorophenyl)piperazin-1-yl)propyl)-1-ethyl-2-methyl-5-phenyl-1H-pyrrole-3-carboxamide], the IC50 is 376 nM in experiment [1], 66 nM in experiment [2] and 182 nM in experiment [3].

Turning to `CCCn1c(C)c(C(=O)NCCCN2CCN(c3cccc(Cl)c3Cl)CC2)c(C)c1-c1ccccc1` [Example 81, N-(3-(4-(2,3-dichlorophenyl)piperazin-1-yl)propyl)-2,4-dimethyl-5-phenyl-1-propyl-1H-pyrrole-3-carboxamide hydrochloride], the results for the IC50 in experiment [1], in experiment [2] and in experiment [3] were 25 nM, 75 nM and 78 nM, respectively.

In the case of `CCCn1c(-c2ccccc2)cc(C(=O)N(C)CCCN2CCN(c3cccc(Cl)c3Cl)CC2)c1C` [Example 31, N-(3-(4-(2,3-dichlorophenyl)piperazin-1-yl)propyl)-N,2-dimethyl-5-phenyl-1-propyl-1H-pyrrole-3-carboxamide hydrochloride], the figures for the IC50 in experiment [1], in experiment [2] and in experiment [3] were 33.2 nM, 20.7 nM and 102 nM, respectively.

For `CCCn1c(-c2ccccc2)cc(C(=O)NCCCN2CCN(c3cccc(Cl)c3)CC2)c1C` [Example 6, N-(3-(4-(3-chlorophenyl)piperazin-1-yl)propyl)-2-methyl-5-phenyl-1-propyl-1H-pyrrole-3-carboxamide], the IC50 in experiment [1] is 191 nM; in experiment [2], 273 nM; in experiment [3], 93 nM.

On to `Cc1cccc(N2CCN(CCCNC(=O)c3cc(-c4ccccc4)n(C)c3C)CC2)c1C` [Example 3, N-(3-(4-(2,3-dimethylphenyl)piperazin-1-yl)propyl)-1,2-dimethyl-5-phenyl-1H-pyrrole-3-carboxamide], for which the values for the IC50 in experiment [1], in experiment [2] and in experiment [3] were 57 nM, 133 nM and 11.8 nM, respectively.

As for `Cc1c(C(=O)NCCCN2CCN(c3cccc(Cl)c3Cl)CC2)cc(-c2ccccn2)n1C` [Example 92, N-(3-(4-(2,3-dichlorophenyl)piperazin-1-yl)propyl)-1,2-dimethyl-5-(pyridin-2-yl)-1H-pyrrole-3-carboxamide dihydrochloride], the IC50 in experiment [1] is 43 nM; in experiment [2], 267 nM; in experiment [3] it was 110 nM.

`CCCn1c(-c2ccccc2)cc(C(=O)NCCCCN2CCN(c3cccc(C)c3C)CC2)c1C` [Example 33, N-(4-(4-(2,3-dimethylphenyl)piperazin-1-yl)butyl)-2-methyl-5-phenyl-1-propyl-1H-pyrrole-3-carboxamide hydrochloride]: the results for the IC50 in experiment [1], in experiment [2] and in experiment [3] were 792 nM, 149 nM and 76 nM, respectively.

Take `CCCn1c(-c2ccccc2)cc(C(=O)NCCCN2CCN(c3ccccc3C#N)CC2)c1C` [Example 90, N-(3-(4-(2-cyanophenyl)piperazin-1-yl)propyl)-2-methyl-5-phenyl-1-propyl-1H-pyrrole-3-carboxamide hydrochloride]: the IC50 in experiment [1] was 269 nM; in experiment [2], 637 nM; in experiment [3] it was 223 nM.

`CCn1c(C(C)(C)C)cc(C(=O)NCCCN2CCN(c3cccc(C)c3C)CC2)c1C` [Example 190, 5-tert-butyl-N-(3-(4-(2,3-dimethylphenyl)piperazin-1-yl)propyl)-1-ethyl-2-methyl-1H-pyrrole-3-carboxamide]: the IC50 in experiment [1] turned out to be 386 nM; in experiment [2], 1140 nM.

In the case of `Cc1c(Cl)cccc1N1CCN(CCNC(=O)c2cc(-c3ccccc3)n(C)c2C)CC1` [Example 184, N-(2-(4-(3-chloro-2-methylphenyl)piperazin-1-yl)ethyl)-1,2-dimethyl-5-phenyl-1H-pyrrole-3-carboxamide], the IC50 in experiment [1] came out at 152 nM; in experiment [2] it was 233 nM.

For the compound `Cc1cccc(N2CCN(CCNC(=O)c3cc(C(C)(C)C)n(C)c3C)CC2)c1C` [Example 189, 5-tert-butyl-N-(2-(4-(2,3-dimethylphenyl)piperazin-1-yl)ethyl)-1,2-dimethyl-1H-pyrrole-3-carboxamide], the concentration for half-maximal inhibition (IC50) in experiment [2] worked out at 227 nM.

With `Cc1c(Cl)cccc1N1CCN(CCNC(=O)c2cc(C(C)(C)C)n(C)c2C)CC1` [Example 187, 5-tert-butyl-N-(2-(4-(3-chloro-2-methylphenyl)piperazin-1-yl)ethyl)-1,2-dimethyl-1H-pyrrole-3-carboxamide], the IC50 in experiment [1] stood at 54 nM; in experiment [2], 210 nM.

As to `Cc1ccc2cccc(N3CCN(CCNC(=O)c4cc(-c5ccccc5)n(C)c4C)CC3)c2n1` [Example 185, 1,2-dimethyl-N-(2-(4-(2-methylquinolin-8-yl)piperazin-1-yl)ethyl)-5-phenyl-1H-pyrrole-3-carboxamide], the IC50 in experiment [1] was 761 nM; in experiment [2], 554 nM.

`Cc1c(C(=O)NCCN2CCN(c3cccc(Cl)c3Cl)CC2)cc(C(C)(C)C)n1C` [Example 169, 5-tert-butyl-N-(2-(4-(2,3-dichlorophenyl)piperazin-1-yl)ethyl)-1,2-dimethyl-1H-pyrrole-3-carboxamide]: in experiment [1], the IC50 is 57 nM.

With `Cc1ccc2cccc(N3CCN(CCNC(=O)c4cc(C(C)(C)C)n(C)c4C)CC3)c2n1` [Example 188, 5-tert-butyl-1,2-dimethyl-N-(2-(4-(2-methylquinolin-8-yl)piperazin-1-yl)ethyl)-1H-pyrrole-3-carboxamide], the IC50 in experiment [1] turned out to be 1480 nM; in experiment [2] it was 1500 nM.

Consider `Cc1c(C(=O)NCCN2CCN(c3cccc(Cl)c3F)CC2)cc(C(C)(C)C)n1C` [Example 186, 5-tert-butyl-N-(2-(4-(3-chloro-2-fluorophenyl)piperazin-1-yl)ethyl)-1,2-dimethyl-1H-pyrrole-3-carboxamide], for which the results for the IC50 in experiment [1] and in experiment [2] were 121 nM and 293 nM, respectively.
